Columns and labels:
[1] = TDI-induced scratching bouts (itch); type: in vivo, mouse
Description: Several different model systems were utilized for these experiments. In one model, dorsal root ganglia were obtained from mice and the neurons cultured in vitro. The neurons were then stimulated in the presence/absence of A15 and YM8-85 and the calcium responses monitored by fluorescence microscopy. In the second model, the alkamides were applied to mouse skin in mineral oil. The reactions of these mice to heat, cold, and tactile stimulation was then compared with mice that had not received treatment with A15. In a third model, mice were sensitized to the chemical compound toluene-2,4-diisocyanate (TDI). TDI is an industrial chemical which causes hypersensitive skin lesions and itching in exposed humans and animals. The physiological response to TDI is complex involving type 2 T lymphocytes, cytokines, mast cells, and neurons. Alkamides were applied to sensitized animals and then ear swelling and bouts of scratching were monitored.
The effects of A15 on TDI-induced itch. The itch response was also monitored in mice sensitized and treated with TDI. Treated mice were video recorded and the number of scratching bouts quantified by an observer.

β-hexosaminidase = β-hexosaminidase enzyme activity in RBL-2H3 cell lysates with p-NAG; type: biochemical, rat; settings: 1 hr at 37° C.
Method: FIG. 8. […] RBL-2H3 cells were lysed with 0.1% Triton X-100 to release β-hex from the cells. Lysates were incubated for 1 hr at 37° C. with the substrate, p-NAG, in combination with the indicated concentrations of A15 or vehicle only. The absorbance at 405 nm was measured using a microplate spectrophotometer. Results shown are the means±SEM of triplicate wells from a representative experiment out of 2 independent experiments. Statistical analysis was performed using a one-way ANOVA with Dunnett's post-hoc test.

[2] = tested on: bone marrow derived mast cells (BMMCs); assay: β-hexosaminidase degranulation assay, BMMCs; type: cell-based; settings: Mus musculus, BMMC, A23187-stimulated BMMCs, 1 hr, read-out: maximum inhibition of release of β-hex
Method: FIGS. 1A-1F. A15 inhibits BMMC and RBL-2H3 cell degranulation. The structure of alkamide A15 is shown with different functional groups and carbons in the fatty acid chain labeled (FIG. 1A). BMMCs were plated and stimulated 4 hrs later with 1 μM A23187 and the indicated concentrations of A15 or vehicle only. The percent degranulation was measured after 1 hr (FIG. 1B). RBL-2H3 cells were treated with A23187 and the percent degranulation was determined 1 hr later (FIG. 1C) or every 10 min over a 1 hr time course (FIG. 1D). RBL-2H3 cells were plated and incubated for 4 hrs before the media was aspirated and replaced with media containing 1 μg/mL IgE anti-DNP. Cells were incubated overnight and washed prior to stimulation. The percent degranulation from RBL-2H3 cells was calculated after stimulation with 50 ng/mL DNP-HSA in combination with the indicated concentrations of A15 or vehicle only after 1 hr (FIG. 1E). RBL-2H3 cells were stimulated for 1 hr in Tyrode's buffer before supernatants were collected and levels of histamine were measured using a competitive inhibition EIA kit (FIG. 1F). […]
RBL-2H3 cell and BMMC degranulation was measured using a β-hexosaminidase (β-hex) activity assay. […]

[3] = molecular target: cannabinoid type 2 receptor (CB2) (Homo sapiens, UniProt P34972); settings: Raduner et al., 2006; cited from earlier work
Chain of cannabinoid type 2 receptor (CB2) (P34972 whole entry, species assumed): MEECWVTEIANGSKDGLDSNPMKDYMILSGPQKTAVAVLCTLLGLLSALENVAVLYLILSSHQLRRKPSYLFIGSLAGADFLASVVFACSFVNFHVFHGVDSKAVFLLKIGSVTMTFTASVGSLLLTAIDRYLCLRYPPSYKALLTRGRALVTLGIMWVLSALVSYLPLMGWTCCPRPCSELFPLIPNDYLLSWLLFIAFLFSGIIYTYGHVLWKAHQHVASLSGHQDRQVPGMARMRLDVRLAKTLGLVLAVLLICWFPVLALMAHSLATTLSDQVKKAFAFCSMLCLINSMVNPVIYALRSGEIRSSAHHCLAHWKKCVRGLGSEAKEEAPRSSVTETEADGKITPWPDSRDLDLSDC

Structure (SMILES): CCCCCCC/C=C/C=C/C(=O)NCC(C)C [A15, (2E,4E)-N-Isobutyldodeca-2,4-dienamide]
- scratching bouts in TDI treated mice ([1]; higher dose 1.0%): strong significant inhibition of scratching
- scratching bouts in TDI treated mice ([1]; lower dose 0.1%): strong significant inhibition of scratching
- enzymatic activity of β-hex (production of chromogenic product from p-NAG) (β-hexosaminidase): not inhibited
- inhibition at 100 µM [2]: 83.5%
- binding to CB2 [3]: shown to bind

From patent US20200290950A1, “ALKAMIDE COMPOUNDS AND USES THEREOF” (NORTH CAROLINA STATE UNIVERSITY, priority 2017, published 2020)
